Values joined by “and” are separate entries in the source; they are usually repeats but may differ in a detail not shown here. Equal entries are not always repeated. Where two headings read alike, the source gives them in different places. One block for each compound: values may come before it.
How the values were obtained:
[1] = type: in vivo, human; details: for CLR (renal clearance) / AUC0–6 h / AUC0–24 h / Cmax / AUC(0-t): mean ± SD; for AUC0–6 h / AUC0–24 h / Cmax / AUC(0-t): serum
OATP1B1 = molecular target: T1, OATP1B1 (Homo sapiens, UniProt Q9Y6L6); type: cell-based; details: OATP1B1-transfected HEK293 cells, efavirenz 1–1,000 μmol/l
T1 sequence (Q9Y6L6 1-691): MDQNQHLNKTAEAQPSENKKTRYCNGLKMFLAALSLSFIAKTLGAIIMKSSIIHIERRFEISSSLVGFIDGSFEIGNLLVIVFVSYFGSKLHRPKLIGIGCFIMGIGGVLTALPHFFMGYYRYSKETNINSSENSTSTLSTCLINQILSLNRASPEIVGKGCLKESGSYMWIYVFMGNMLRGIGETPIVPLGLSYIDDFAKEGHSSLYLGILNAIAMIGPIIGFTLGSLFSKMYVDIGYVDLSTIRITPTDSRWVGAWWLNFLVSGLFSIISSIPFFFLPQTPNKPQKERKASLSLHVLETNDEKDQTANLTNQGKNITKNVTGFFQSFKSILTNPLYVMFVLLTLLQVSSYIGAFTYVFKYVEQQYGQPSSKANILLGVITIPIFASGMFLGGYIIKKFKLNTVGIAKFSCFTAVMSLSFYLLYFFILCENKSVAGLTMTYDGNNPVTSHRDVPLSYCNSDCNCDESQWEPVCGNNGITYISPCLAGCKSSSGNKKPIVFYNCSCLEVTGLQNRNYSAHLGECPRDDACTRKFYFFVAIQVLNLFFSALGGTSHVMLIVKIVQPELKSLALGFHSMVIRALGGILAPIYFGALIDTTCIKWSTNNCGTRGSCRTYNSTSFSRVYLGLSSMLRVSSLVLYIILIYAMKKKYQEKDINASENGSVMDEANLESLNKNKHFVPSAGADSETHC

ABCC2 = ABCC2 (Homo sapiens, UniProt Q92887); test: Uptake of estradiol-17β-glucuronide into ABCC2-containing inside-out vesicles; type: biochemical
Chain of ABCC2 (Q92887 whole entry): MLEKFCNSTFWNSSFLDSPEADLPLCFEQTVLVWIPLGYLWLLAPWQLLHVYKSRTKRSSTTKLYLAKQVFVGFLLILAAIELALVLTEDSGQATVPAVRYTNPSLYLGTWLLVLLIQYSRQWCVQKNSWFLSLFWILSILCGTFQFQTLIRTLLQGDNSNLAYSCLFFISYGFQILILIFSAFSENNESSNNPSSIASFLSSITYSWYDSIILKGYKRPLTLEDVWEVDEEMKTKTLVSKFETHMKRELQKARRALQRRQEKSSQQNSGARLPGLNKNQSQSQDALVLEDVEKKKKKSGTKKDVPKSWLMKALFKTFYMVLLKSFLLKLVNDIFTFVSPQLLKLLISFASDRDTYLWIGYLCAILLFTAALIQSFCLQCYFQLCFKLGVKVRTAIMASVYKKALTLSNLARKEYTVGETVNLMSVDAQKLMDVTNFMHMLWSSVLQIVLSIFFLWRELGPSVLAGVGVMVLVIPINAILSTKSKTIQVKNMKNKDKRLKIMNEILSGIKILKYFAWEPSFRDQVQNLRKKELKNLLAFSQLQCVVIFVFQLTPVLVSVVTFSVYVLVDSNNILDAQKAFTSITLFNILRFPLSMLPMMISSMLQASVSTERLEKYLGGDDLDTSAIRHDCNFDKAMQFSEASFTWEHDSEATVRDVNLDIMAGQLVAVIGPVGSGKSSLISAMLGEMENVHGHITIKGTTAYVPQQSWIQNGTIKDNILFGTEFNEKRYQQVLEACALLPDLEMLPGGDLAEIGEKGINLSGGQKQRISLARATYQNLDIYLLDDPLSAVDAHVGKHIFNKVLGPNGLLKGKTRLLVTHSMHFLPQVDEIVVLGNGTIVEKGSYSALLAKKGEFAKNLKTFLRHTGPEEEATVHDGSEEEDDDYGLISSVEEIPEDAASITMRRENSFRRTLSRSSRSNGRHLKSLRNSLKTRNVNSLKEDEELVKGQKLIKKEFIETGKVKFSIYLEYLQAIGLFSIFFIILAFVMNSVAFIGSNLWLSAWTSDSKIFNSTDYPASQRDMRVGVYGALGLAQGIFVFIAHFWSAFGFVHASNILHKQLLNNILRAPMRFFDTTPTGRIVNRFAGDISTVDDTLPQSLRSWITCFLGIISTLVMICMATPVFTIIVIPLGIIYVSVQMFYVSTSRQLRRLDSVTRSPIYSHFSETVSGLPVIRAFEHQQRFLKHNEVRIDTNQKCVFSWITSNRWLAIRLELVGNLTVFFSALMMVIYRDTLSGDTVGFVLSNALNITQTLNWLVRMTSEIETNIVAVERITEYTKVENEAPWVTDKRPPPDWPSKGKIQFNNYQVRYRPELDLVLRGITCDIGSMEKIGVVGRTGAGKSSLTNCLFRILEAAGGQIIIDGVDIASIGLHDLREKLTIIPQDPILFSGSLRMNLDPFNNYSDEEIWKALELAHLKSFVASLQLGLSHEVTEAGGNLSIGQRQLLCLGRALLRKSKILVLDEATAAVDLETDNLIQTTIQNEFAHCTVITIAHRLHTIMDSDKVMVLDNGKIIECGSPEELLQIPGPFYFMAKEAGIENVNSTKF

ABCB1 = ABCB1 (Homo sapiens, UniProt P08183); test: Calcein AM accumulation assay in ABCB1-transfected MDCKII cells; type: cell-based
Chain of ABCB1 (P08183 whole entry): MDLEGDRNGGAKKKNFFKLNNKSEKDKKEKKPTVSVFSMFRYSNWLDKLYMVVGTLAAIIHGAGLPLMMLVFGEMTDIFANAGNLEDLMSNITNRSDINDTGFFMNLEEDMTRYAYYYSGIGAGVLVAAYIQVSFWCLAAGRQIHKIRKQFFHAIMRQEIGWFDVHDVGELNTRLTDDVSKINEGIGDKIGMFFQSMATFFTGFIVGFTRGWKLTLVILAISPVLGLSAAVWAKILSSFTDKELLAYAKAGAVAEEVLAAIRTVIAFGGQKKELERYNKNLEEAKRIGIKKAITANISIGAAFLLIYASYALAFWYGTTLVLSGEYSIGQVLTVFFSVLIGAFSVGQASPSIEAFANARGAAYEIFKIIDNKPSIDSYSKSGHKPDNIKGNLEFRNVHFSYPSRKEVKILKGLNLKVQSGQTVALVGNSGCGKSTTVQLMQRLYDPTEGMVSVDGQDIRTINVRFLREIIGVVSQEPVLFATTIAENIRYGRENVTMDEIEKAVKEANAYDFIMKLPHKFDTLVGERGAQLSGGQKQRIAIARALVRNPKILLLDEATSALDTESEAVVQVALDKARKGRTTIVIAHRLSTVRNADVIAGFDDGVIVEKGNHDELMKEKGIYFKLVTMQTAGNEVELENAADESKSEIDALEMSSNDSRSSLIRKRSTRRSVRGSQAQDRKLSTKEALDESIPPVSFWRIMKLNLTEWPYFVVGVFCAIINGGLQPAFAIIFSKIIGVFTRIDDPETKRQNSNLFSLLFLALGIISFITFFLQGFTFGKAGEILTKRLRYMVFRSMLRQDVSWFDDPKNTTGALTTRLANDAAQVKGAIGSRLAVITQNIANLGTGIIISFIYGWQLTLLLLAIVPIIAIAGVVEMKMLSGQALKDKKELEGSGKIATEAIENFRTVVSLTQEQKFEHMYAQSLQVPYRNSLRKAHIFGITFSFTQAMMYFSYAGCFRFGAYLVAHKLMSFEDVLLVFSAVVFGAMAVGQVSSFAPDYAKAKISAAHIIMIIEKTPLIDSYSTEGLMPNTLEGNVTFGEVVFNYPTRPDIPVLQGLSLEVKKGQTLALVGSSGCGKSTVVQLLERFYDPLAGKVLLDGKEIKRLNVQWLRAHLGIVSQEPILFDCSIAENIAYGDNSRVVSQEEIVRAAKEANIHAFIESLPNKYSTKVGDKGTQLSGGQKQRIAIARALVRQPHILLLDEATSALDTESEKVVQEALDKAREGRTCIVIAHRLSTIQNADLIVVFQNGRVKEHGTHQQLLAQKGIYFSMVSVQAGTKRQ

[2] = rapidly absorbed from the upper intestine; cited from earlier work
[3] = type: in vivo, human
[4] = Estimated luminal concentration of efavirenz after oral administration; design: species or system human; details: after oral administration of 400 mg, dose/250 mL
serum cholesterol = details: human, in vivo; cited from earlier work
serum sterols = test: Serum sterol concentrations; type: in vivo, human
[5] = ezetimibe + efavirenz multiple dose vs ezetimibe alone
[6] = ezetimibe + efavirenz single dose vs ezetimibe alone
[7] = steady state 10 mg ezetimibe + 400 mg efavirenz multiple dose
[8] = steady state 10 mg ezetimibe + 400 mg efavirenz single dose
[9] = steady state, 10 mg ezetimibe alone
[10] = 400 mg efavirenz single dose, second value of the pair (taken as with ezetimibe)
[11] = chronic administration of 10 mg ezetimibe, 12 healthy subjects

CLR (renal clearance) ([1]; 10 mg ezetimibe + 400 mg efavirenz multiple dose): 21.7 ± 5.91 mL/min | CLR (renal clearance) ([1]; 10 mg ezetimibe + 400 mg efavirenz single dose): 23.3 ± 7.61 mL/min | CLR (renal clearance) ([1]; 10 mg ezetimibe alone, steady state): 24.7 ± 8.77 mL/min | decrease of exposure ([1]; acute and chronic comedication with efavirenz): 12–30% | AUC0–6 h Ratio (90% CI) [1, 5]: 0.691 (0.592, 0.806) | AUC0–24 h Ratio (90% CI) [1, 5]: 0.700 (0.608, 0.806) | Cmax Ratio (90% CI) [1, 5]: 0.606 (0.469, 0.783) | AUC0–6 h Ratio (90% CI) [1, 6]: 0.872 (0.774, 0.982) | AUC0–24 h Ratio (90% CI) [1, 6]: 0.885 (0.809, 0.968) | Cmax Ratio (90% CI) [1, 6]: 0.776 (0.625, 0.963) | reduction of urinary excretion ([1]; multiple doses of efavirenz, unchanged renal clearance, P = 0.003): 35% | diminished serum AUC ([1]; pretreatment with multiple doses of efavirenz, P = 0.005): ~30% | diminished serum Cmax ([1]; pretreatment with multiple doses of efavirenz, P = 0.012): about 43% | AUC0–6 h [1, 7]: 141 ± 58 ng·h/mL | AUC0–24 h [1, 7]: 325 ± 152 ng·h/mL | Cmax [1, 7]: 45.3 ± 14.6 ng/mL | AUC0–6 h [1, 8]: 182 ± 87 ng·h/mL | AUC0–24 h [1, 8]: 411 ± 195 ng·h/mL | Cmax [1, 8]: 60.9 ± 29.5 ng/mL | AUC0–24 h ([1]; steady state, 10 mg ezetimibe alone, 12 healthy subjects): 466 ± 223 ng·h/mL | AUC0–6 h [1, 9]: 205 ± 90 ng·h/mL | Cmax [1, 9]: 78.9 ± 43.1 ng/mL
SMILES: O=C(O)[C@H]1O[C@@H](Oc2ccc([C@@H]3[C@@H](CC[C@H](O)c4ccc(F)cc4)C(=O)N3c3ccc(F)cc3)cc2)[C@H](O)[C@@H](O)[C@@H]1O [Ezetimibe-glucuronide, ezetimibe-glucuronide]

influence on OATP1B1-mediated uptake of bromosulfophthalein (OATP1B1): no influence | IC50 (ABCC2): 60.3 µM | concentration inhibiting ABCB1 activity to the same extent as PSC833 (10 μmol/l) (ABCB1): 316 µM | cumulative renal excretion ([3]; 400 mg efavirenz single dose, first value of the pair (taken as alone)): 83.4 ± 26.9 µg | cumulative renal excretion [3, 10]: 88.4 ± 18.8 µg | renal clearance [3, 10]: 0.06 ± 0.03 mL/min | AUC(0-inf) ([3]; human, serum, oral, 400 mg): 27000 ± 12200 ng·h/mL | CL renal ([3]; human, urine and plasma, oral, 400 mg): 0.06 ± 0.03 mL/min | estimated luminal concentration [4]: ~ 5 mmol/l and 5 mmol/l
SMILES: O=C1Nc2ccc(Cl)cc2[C@@](C#CC2CC2)(C(F)(F)F)O1 [Efavirenz, efavirenz]
Tmax [2]: 2 to 3 h | HIV-infected patients with increased serum cholesterol levels (serum cholesterol): ~50%

AUC0–6 h Ratio (90% CI) [1, 5]: 1.052 (0.880, 1.256) | AUC0–24 h Ratio (90% CI) [1, 5]: 0.975 (0.850, 1.118) | Cmax Ratio (90% CI) [1, 5]: 0.951 (0.730, 1.240) | AUC0–6 h Ratio (90% CI) [1, 6]: 1.346 (1.201, 1.508) | AUC0–24 h Ratio (90% CI) [1, 6]: 1.146 (1.034, 1.270) | Cmax Ratio (90% CI) [1, 6]: 1.194 (1.031, 1.382) | AUC(0-t) ([1]; human, oral, 10 mg, AUC0–6 h, steady state, 10 mg ezetimibe alone): 13.6 ± 5.5 ng·h/mL | AUC(0-t) ([1]; human, oral, 10 mg, AUC0–24 h, steady state, 10 mg ezetimibe alone, 12 healthy subjects): 51.9 ± 21.7 ng·h/mL | Cmax ([1]; human, oral, 10 mg, Cmax, steady state, 10 mg ezetimibe alone): 4.82 ± 2.74 ng/mL | higher AUC0–6 h ([1]; with single-dose efavirenz vs ezetimibe alone, P = 0.005): 1.4 fold | higher maximum plasma concentration (Cmax) ([1]; with single-dose efavirenz vs ezetimibe alone, P = 0.049): 1.2 fold
SMILES: O=C1[C@H](CC[C@H](O)c2ccc(F)cc2)[C@@H](c2ccc(O)cc2)N1c1ccc(F)cc1 [Ezetimibe, ezetimibe]
lathosterol/cholesterol ratio (marker for endogenous cholesterol synthesis) (serum sterols; after treatment with ezetimibe): significantly increased | reduction of serum concentration of campesterol (serum sterols; [11]): ~ 40% | reduction of serum concentration of sitosterol (serum sterols; [11]): ~ 40% | reduction of total serum cholesterol (serum sterols; [11]): 10–15%

— publication PMC3667671 (Clinical pharmacology and therapeutics, 2012)
